Data on 12 compounds can be found in patent US8053477B2, “Inhibitors of the S100-p53 protein-protein interaction and method of inhibiting cancer employing the same” (University of Maryland, Baltimore, priority 2002, dated 2011).

Positions count from the first letter of the chain named. Where two headings read alike, the source gives them in different places. Where no end group is shown, it is not given here. Where only a bound is given, the exact number is not on record here.

One test deals with MCF-7. The test can be described thus: Bleomycin treatment of MCF-7 cells, Western blots of p53, mdm2, p21. The note with it: MCF-7, wild type p53; FIG. 6B lane 2. Type of test: cell-based, human. The source says:
Next, it was explored whether S100B could interact with endogenous p53 and affect the expression of mdm2 and p21. The human breast cancer cell line MCF-7, which has a wild type p53 genotype (Kastan et al, Cell, 71:587-597 (1992)), was transiently transfected with S100B. After S100B transfection, the cells were either treated (or not) with the x-ray mimic agent bleomycin to induce endogenous p53 production.
(In western blotting, separated proteins are transferred to a membrane and probed.)

For test [1], the target named is T1, S100B (UniProt P04631).
T1 sequence (P04631 1-92): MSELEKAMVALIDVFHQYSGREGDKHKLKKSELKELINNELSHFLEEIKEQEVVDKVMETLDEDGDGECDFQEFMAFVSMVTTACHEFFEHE
The test can be described thus: Fluorescence binding / competition titrations of small molecules to S100B. As to the method: (§1) Inhibition of binding of S100 proteins to p53 can be assayed by fluorescence binding/competition assays. For example, binding to S100B is monitored using fluorescent peptides such as the F43W p53 peptide ([…] (SEQ ID NO:1)) or the TRTK-12 peptide ([…] (SEQ ID NO:2)) that both contain fluorescent tryptophan residues (see Example 7). In such an assay, the binding of the peptide is monitored by changes in its fluorescence intensity at 350-370 nm in the presence of 10-20 mM calcium chloride (pH 7.4). Displacement of the peptide by the test compound is then monitored by a corresponding decrease in fluorescence intensity and the dissociation constant of the test compound from S100B is calculated using a standard competition equation (KD=Kapp/(1+[floursecent peptide]/KD peptide). The amino acid residues on S100B to which the test compound binds can then monitored by chemical shift perturbations using NMR spectroscopy.
The binding of the small molecules to S100B identified in the CADD search were measured using fluorescence spectroscopy. The compounds identified are as follows:
Compounds that fluorescent (i.e., for Compounds 9, 31 and 33) were measured by a direct binding assay to S100B via fluorescence intensity changes. […] First, changes in tyrosine fluorescence (for Tyr-17 of S100B) were sufficient in some cases to evaluate binding (Rustandi et al (1998), supra; and Szabo et al, FEBS Lett., 94:249-252 (1978)). However, to circumvent problems associated with the low quantum yield of the tyrosine residue, the F43W mutant of S100B was used (FIG. 12A), and then competition studies were done with wild-type S100B (FIG. 12B). In this S100B construct (in F43W S100B), the tryptophan residue is located in the target protein binding site, so the emission of the tryptophan mutant was measured in a straightforward manner at 338 nm as a function of adding compound. This F43W mutant has similar structure, Ca^2+-binding and target binding properties of wild-type S100B. Another approach was to bind a fluorescent probe to wild-type S100B and do competition binding assays with the compound. […] Steady state experiments to determine binding constants were performed on Aminco Bowman Series 2 Luminescence Spectrophotofluorometer with the temperature of the cell (quartz cuvettes) maintained at 25° C. Two internal controls were performed in all titrations. EGTA was added to S100B to chelate the calcium and determine whether the interaction with the drug requires the Ca^2+-dependent conformational change observed for a number of protein targets (Weber et al, supra). In addition, the titrations were performed in the absence of calcium as a control. All compounds with fluorescence emission spectra were also routinely evaluated for photobleaching before proceeding. Buffers were also checked routinely for any contaminants that may fluoresce.

The target in the next test is T2, holo-S100B (Homo sapiens, UniProt P04271).
T2 construct: made in house
T2 sequence (P04271 1-92): T1 sequence (P04631 1-92) with E63N, S79A
Description: NMR mapping of binding interface (HSQC chemical shift perturbation, STD). The note with it: 37° C. Here is the method:
NMR spectroscopy experiments were carried out to determine what amino acid residues of S100B and the small molecule are interacting (FIG. 14). Resonances of S100B that interact with the small molecules were identified by titrating compounds into holo-S100B and monitoring perturbations in chemical shifts of backbone amide-proton correlations in a ^15N-edited HSQC spectrum (Mori et al, J. Magnetic Resonance, B108:94-98 (1995)). […] An example of mapping the Compound-S100B interface is provided in FIGS. 14A-14C for the interaction between holo-S100B and Compound 4. […] These residues are highlighted red in FIG. 14C for titrations with Compound 4. Resonance assignments of S100B bound to the small molecules were confirmed using a 3D NOESY-HSQC experiment, and the backbone and sidechain chemical shifts of Ca^+2-loaded S100B and S100B bound to p53 peptide as described by Drohat et al (1998), supra; Rustadni et al (2000), supra; and Rustadni et al (1998), supra, were also helpful in the assignment procedure. Regions of the inhibitors that interact with S100B were identified using epitope mapping via saturation transfer difference experiments (STDs) as described by Mayer et al, J. Am. Chem. Soc., 123:6108-6117 (2001). In FIG. 14A, protons of the compound that are proximal to S100B are indicated by arrows. […]

A further test relates to C8146A melanoma cells. The test can be described thus: siRNA transfection of C8146A melanoma cells, Western blots of S100B, p53, p21. Type of test: cell-based, human. The conditions noted are these: siRNA 2.0, 20 nM; harvested 24 hrs after transfection. Here is the method:
The small interfering RNA (siRNA) used consisted of […] (nt) double-stranded RNA, which was synthesized by Xeragon Inc. (Huntsville, Ala.). The sequence of the siRNA, i.e., 5′-ACUACUGCCUGCCACGAGUUC-3 (SEQ ID NO:6), corresponds to the S100β C-terminal end (nt 244-265) plus two dT 3′ overhang.
Different concentrations of siRNA (2.0, 20 nM) were added to the cells along with 2.0 μg of pCMV.3 empty vector (Stratagene, La Jolla, Calif.). The siRNA was transfected in C8146A melanoma cells using FuGENE reagent (Roche Molecular Biochemicals, Indianapolis, Ind.) according to the manufacturer's recommendation. The cells were harvested 24 hrs later and analyzed by Western blots as described above.

Test [2] relates to primary malignant melanoma cells (C8146A and HTB 64). The test can be described thus: Growth of primary malignant melanoma cells (cell counting after 13 days). Type of test: cell-based. The conditions noted are these: Homo sapiens. Here is the method:
(§2) The effect that compounds have on the growth of primary malignant melanoma cells (cell lines: C8146A and HTB 64) and normal melanocytes (Cell Applications Inc. 104-05 from neonatal foreskin) were measured. […] The growth inhibition constants (IC50 values) results from other compounds are listed above. In these studies, typically ˜10,000 cells were distributed evenly across T25 vials. One day later, new media with or without the small molecule (2.5 μM or 25 μM) was added, and the cells were allowed to grow for an additional 13 days. Because some molecules were delivered in DMSO, the effect of DMSO (0.1-0.2% (v/v)) on cell growth was also checked and found to have no effect at these levels (FIG. 13). At this point, the cells were washed in phosphate buffer saline (PBS), harvested by treatment with trypsin, and placed in F10 media with 5.0% (v/v) fetal bovine serum (FBS), 5.0% (v/v) newborn calf serum (NCS), and 2.0% (w/v) penicillin/streptomycin. The cells were counted with a hemocytometer in quadruplicate trials.

Test [3] addresses T1, S100B. Description: Fluorescence binding / competition titrations of small molecules to S100B. The conditions noted are these: read-out: KD of fluorescent probe peptide for S100B; probes used in competition studies with wild-type S100B. Set-up: rows headed: KD of fluorescent probe peptide for S100B. As to the method: as §1
The binding of the small molecules to S100B identified in the CADD search were measured using fluorescence spectroscopy. […]
Compounds that fluorescent (i.e., for Compounds 9, 31 and 33) were measured by a direct binding assay to S100B via fluorescence intensity changes. […] First, changes in tyrosine fluorescence (for Tyr-17 of S100B) were sufficient in some cases to evaluate binding (Rustandi et al (1998), supra; and Szabo et al, FEBS Lett., 94:249-252 (1978)). […]

In test [4] the test system is normal melanocytes (neonatal foreskin). The test can be described thus: Growth of normal melanocytes (cell counting). The note with it: compared with melanoma cells. Type of test: cell-based. Here is the method: as §2
Setting [5] is: direct fluorescence, F43W S100B or peptide-probe competition, 25° C., calcium present, read-out: Kd (binding to S100B, fluorescence spectroscopy).
Where [6] appears, read: 312 h, primary malignant melanoma cells, screened at 2.5 μM or 25 μM, 13 days, read-out: IC50 (growth inhibition constant).

Turning to bleomycin, the “basal levels of p53, mdm2 and p21, in words” value in the test on MCF-7 was “induced”.

In the case of `CC(C)(C)NC(=O)c1cccc(N2C(=O)c3ccc(C(=O)O)cc3C2=O)c1` [Compound 44, 2-(3-tert-Butylcarbamoyl-phenyl)-1,3-dioxo-2,3-dihydro-1H-isoindole-5-carboxylic acid], the Kd (commonly the equilibrium constant for the complex coming apart) on S100B [1] (setting [5]) is about 24 µM.

For `Cc1c(NS(=O)(=O)c2ccc(NC(=O)CCC(=O)O)cc2)c(=O)n(-c2ccccc2)n1C` [Compound 4, 4-(4-{[(1,5-dimethyl-3-oxo-2-phenyl-2,3,dihydro-1H-pyrazol-4-yl)amino]sulfonyl}anilino)-4-oxo butanoic acid], at S100B [1] (setting [5]), the Kd was 2 µM. In addition, the “binding site on S100B by NMR” value on holo-S100B was “interacts with the C-terminus of S100B (loop 4) and another region of S100B (loop 2)”.

Turning to `N=C(N)NC(=N)Nc1ccc(Cl)cc1C(=O)c1ccccc1` [Compound 9, {[(2-benzoyl-4-chloroanilino)(imino)methyl]amino}methanimidamide], the Kd on S100B [1] (setting [5]) amounted to 4 µM.

Consider “5′-ACUACUGCCUGCCACGAGUUC-3 [siS100B]”, for which, in the test on C8146A melanoma cells, the “increase in p53 levels” value is on record as 2.3 fold, the “lowering of S100B levels” value is on record as 3 fold and the “up-regulation of p21 protein levels” value amounted to 2.6 fold.

Turning to `O=C(COc1ccc(C(F)(F)F)c[n+]1[O-])c1cccc([N+](=O)[O-])c1` [Compound 1, 2-[2-(3-nitrophenyl)-2-oxoethoxy]-5-(tri-fluoromethyl)pyridinium-1-olate], the Kd at S100B [1] (setting [5]) turned out to be 2.7 µM. Besides, the IC50 (commonly the concentration that inhibits the measured activity by half) in test [2] (setting [6]) came to 2500 nM.

In the case of `COc1cccc(N2C(=O)c3ccc(C(=O)Nc4cc(C(=O)O)cc(C(=O)O)c4)cc3C2=O)c1` [Compound 45, 5-{[2-(3-Methoxy-phenyl)-1,3-dioxo-2,3-dihydro-1H-isoindole-5-carbonyl]-amino}-isophthalic acid], at S100B [1] (setting [5]), the Kd is about 12 µM.

Consider “SHLKSKKGQSTSRHKKLMWKTE [p53 (F385W), reference compound]”, for which, on S100B [3], the Kd came to 3 µM.

Turning to `N=C(N)c1ccc(OCCCCCOc2ccc(C(=N)N)cc2)cc1` [pentamidine, reference compound], the Kd at S100B [1] (setting [5]) came out at 1.4 µM; at S100B [1] (read-out: binding constant (KD) between wild-type holo-S100B and pentamidine, competition of pentamidine bound to F43W S100B with wild-type S100B) it was 0.7 µM. For the same compound, the IC50 in test [2] (primary malignant melanoma cells (C8146A), read-out: IC50 for inhibition of cell growth) is about 500 nM. The “effect on normal melanocytes, in words” value in test [4] is “lesser effects on normal melanocytes”. Moreover, on holo-S100B, the “binding site on S100B by NMR” value is recorded as “in the p53 binding site”.

`COc1cc(C2Nc3ccccc3-c3nc(SC)nnc3O2)ccc1OCC(=O)O` (stereo not drawn) [Compound 33, 1,2-(3-methylthiotraizine),3,4-phenyl,6-[(2-methoxyphenoxy)Acetic Acid]morpholine]: in test [2] (setting [6]), the IC50 was about 25000 nM.

Turning to `N=C(N)NC(=N)Nc1cccc(Cl)c1Cl` [Compound 3, {[(2,3,dichloroanilino)(imino)methyl]amino}methanimidamide], the IC50 in test [2] (primary malignant melanoma cells, read-out: IC50 (growth inhibition constant), unit inferred) is under 2500 nM.

Consider `O=C(O)c1cc(N/N=C/c2ccc(-c3ccc(Cl)c(C(=O)O)c3)o2)ccc1Cl` [Compound 31], for which the Kd on S100B [1] (setting [5]) is about 6 µM. Besides, in test [2] (setting [6]), the IC50 is about 25000 nM.
